# Results reported in a melting point compilation (Tetko et al.; mined from patent text by program, amines drawn as free bases though some values may be those of a salt).
row,SMILES,melting point
1,Cc1nc(N2CCc3ccsc3CC2)c([N+](=O)[O-])c(=O)[nH]1,> 200 °C
2,CCC(=O)OC1C(CO)OC(n2cnc3c(N)ncnc32)C1OC(=O)CC (stereo not drawn),172 to 173 °C
3,Cc1cn(Cc2cc(C)c3c(c2)-c2[nH]nc(-c4ccsc4)c2C3)cn1,240 to 242 °C
4,COc1ccc2c(c1)COc1c-2ccc2c(OC)cccc12,166 to 167 °C
5,COc1ccc2c(c1)C(C(=O)O)CC2 (stereo not drawn),101 °C
6,Oc1ccc(-c2cc(F)c3cc(O)ccc3c2)cc1,236 to 238 °C
7,COc1cc(CCNC(=O)N(C)O)cc(OC)c1,121 to 123 °C
8,CC(C)=CCOc1ccc(C(=O)C=Cc2ccccc2)c(O)c1,164 to 166 °C
9,CC(=O)Nc1nc(C(N)=O)cs1,> 250 °C
10,OCC1CNCCC1c1ccc(F)cc1 (stereo not drawn),123 to 124 °C
11,O=C1CNC(=O)[C@@H](CO)N1,218 °C
12,COC(=O)c1ccc(Cn2c(=O)c(C)c3sc(C(=O)NCc4cccc(F)c4)cn3c2=O)cc1,209 to 211 °C
13,Cc1[nH]n(C2CCCCC2)c2nc(-c3ccncc3)nc(=O)c1-2,292 to 293 °C
14,COC(=O)C1C(C)OC(=O)C(C)C1NC(=O)OCc1ccccc1 (stereo not drawn),144 to 146 °C
15,CC(C)n1c(=O)n(C)c(=O)c2c(S(=O)CCCO)n(C3Cc4ccccc4C3)cc21 (stereo not drawn),164 to 165 °C
16,O=C(/C=C/c1ccc(C(=O)Nc2cccc(Nc3nc(-c4cccnc4)cs3)c2)cc1)NO,101 °C
17,Nc1c(OCCCl)cccc1[N+](=O)[O-],71 to 73 °C
18,O=C(NC(C(=O)O)c1ccc[nH]1)OCC(Cl)(Cl)Cl (stereo not drawn),111 °C
19,CCc1cc(=O)c2cc(CCO)ccc2o1,75 to 76 °C
20,CCOC(=O)c1[nH]c(CC)nc1C(C)C,177 to 178 °C
21,CCCCOc1c(CNC(=O)OC(C)(C)C)n(CC(C)C)c(=O)c2ccc(-c3noc(C)n3)cc12,152 °C
22,COc1ccc(-c2cc3n(n2)C(=O)c2ccccc2-3)cc1,180 to 181 °C
23,CS(=O)c1ccc(COc2cccc(C(=O)Nc3ccc(C#N)cc3)c2)cc1 (stereo not drawn),174 to 175 °C
24,CSc1ccc(N)c(C(=O)NN)c1,124 to 127 °C
25,NCC1COc2cc(Cl)cc(-c3ccccc3F)c2N1 (stereo not drawn),95 °C
26,COC(=O)CCCc1cc2nc(Cl)ccc2n1S(=O)(=O)c1cc(OC)ccc1OC,102 °C

row,SMILES,melting point
1,O=C(Cl)c1ccc(S(=O)(=O)NC(=O)c2ccccc2Cl)cc1,198 to 200 °C
2,O=c1[nH]c(N[N+](=O)[O-])ncc1Cc1ccn(Cc2ccccc2)c(=O)c1,200 to 201 °C
3,CCS(=O)(=O)Nc1ccc([N+](=O)[O-])cc1SC1CCCCC1,119 to 120 °C
4,O=C(O)c1cc2cc(Cl)ccc2nc1NC(COCc1ccccc1)C(=O)Nc1ccccc1 (stereo not drawn),150 to 151 °C
5,CCC1CN(c2cccc(C(C)C)c2)C(=O)C1c1cccc(Cl)c1 (stereo not drawn),88.5 to 90 °C
6,OC(CNCCCc1ccc(OCCOCCc2ccccc2)cc1)COc1ccccc1 (racemic),76 to 78 °C
7,CCCCc1c(Cl)nc(C)nc1Cl,50 to 51 °C
8,O=C(Cn1nc(-c2ccccc2O)nc1-c1ccccc1O)NCCOCCO,173 to 174 °C
9,CCCCC(CC)CNCCCCOc1ccc2ccccc2c1 (stereo not drawn),94 °C
10,CC1(C)CN(C2CCN(c3cc(Cl)cc(Cl)c3)C2=O)C1=O (stereo not drawn),185 to 186 °C
11,O=C(NCCO)c1cccc(-c2ccc3c(c2)N(Cc2cccc(Cl)c2Cl)CC3)c1,158 to 159 °C
12,[N-]=[N+]=NC1(c2ccccc2Cl)C(=O)Nc2ccc(Cl)cc21 (stereo not drawn),178 °C
13,CCOC(=O)N1CCCN(c2nc3ccccc3[nH]2)CC1,161 to 162 °C
14,N#CC(c1ccc([N+](=O)[O-])cc1)c1ccccn1 (racemic),97 to 99 °C
15,CCCc1c(O)cc2oc3cccn3c(=O)c2c1O,170 to 171 °C
16,CC(C)(C)c1cc(C2=NOC(CCOc3ccc([N+](=O)[O-])cc3)C2)cc(C(C)(C)C)c1O (stereo not drawn),151 to 153 °C
17,CCCCN(CCCC)c1ccc(C=CC=CC=CC2=C(C#N)C(=C(C#N)C#N)OC2(C)C)c(OC)c1,156 to 160 °C
18,CCCC[C@H](NC(=O)[C@H](CCCC)NC(=O)OCc1ccccc1)C(=O)CSCc1ccco1,95 to 97 °C
19,Cc1ccc(/C=C(/C(=O)OC(C)(C)C)C(=O)c2ccccc2O)cc1,86 to 89 °C
20,CN(C)Cc1ccc(CSCCN=CNS(=O)(=O)c2ccccc2)o1,83 to 85 °C
21,COc1ccc2c(c1)C(CCNC(C)=O)CN(Cc1ccccc1)C2 (stereo not drawn),123 to 125 °C
22,CCOc1ccc2cc(-c3nn(C(C)c4oc5ccccc5c(=O)c4-c4cccc(F)c4)c4ncnc(N)c34)ccc2c1 (stereo not drawn),286 to 290 °C
23,O=c1c(CCCc2ccco2)cc2cccnc2n1-c1cccc([N+](=O)[O-])c1,166 to 167 °C
24,Cn1cc(C2=C(c3cn(C)c4cc(O)ccc34)C(=O)NC2=O)c2ccccc21,279 to 282 °C
25,CCOC(=O)c1cn(CC)c2occc2c1=O,158 to 160 °C
26,Cc1nnc(-c2ccc3occ(-c4ccc(S(=O)(=O)C(C)C)cc4)c3c2)o1,229 to 230 °C

row,SMILES,melting point
1,COc1cc(C(=O)Nc2ccc(S(=O)(=O)C(F)(F)F)cc2Cl)c(O)c(C(C)(C)C)c1,126 to 127 °C
2,C=C1c2ccccc2CCc2ccccc21,65.1 °C
3,FC(F)(F)c1ccc(Sc2nc(-c3ccccc3)c(-c3ccccc3)[nH]2)cc1,227 to 229 °C
4,c1ccc(-c2nc(COc3ccc(CCCn4ccnc4)cc3)co2)cc1,111 to 112 °C
5,COc1cc2c(c(-c3ccccc3F)c1)OC(CN)C2 (stereo not drawn),> 250 °C
6,CN(C)C(C#N)C1(c2ccc(Cl)cc2)CCC1 (stereo not drawn),90 to 91 °C
7,CCOc1ccc(C=O)c(F)c1F,70 °C
8,O=C(O)C(CC(=O)N1CC2CC=CCC2C1)Cc1ccccc1 (stereo not drawn),128 to 132 °C
9,CCOC(=O)c1c(C(F)(F)F)nc(OC)c(C#N)c1OC,32 to 34 °C
10,N#CC(Cc1ccccc1)=NNc1ccc(C(O)(C(F)(F)F)C(F)(F)F)cc1,164 to 167 °C
11,CN(C)CCNc1cc(Cl)nc(-c2ccccc2)n1,140 to 145 °C
12,O=C1NC(=O)C(c2cn3c4c(cccc24)CCC3)C1c1ccc(O)cc1 (stereo not drawn),105 to 107 °C
13,COc1cc2nc(N)nc(-c3ccccc3Cl)c2cc1OC,247 to 280 °C
14,COc1ccc(C(C)(c2ccc(OC)cc2)c2ccc(N(c3ccc(C)cc3)c3ccc(C)cc3)cc2)cc1,147 to 148 °C
15,COC(=O)c1c(-c2ccc(F)cc2)nc(N)nc1C(C)C,146 to 147 °C
16,"CCC(C(=O)c1ccc(Cl)cc1)n1ncn(-c2ccc(N3CCN(c4cnccn4)CC3)nc2)c1=O (single isomer, unassigned; (+))",190 °C
17,Nc1nc2cc3[nH]c(-c4ccncc4)nc3cc2[nH]1,> 320 °C
18,CN1C(=N)C(=O)c2ccccc21,99 to 102 °C
19,O=C(C1CCN(c2ccncn2)C1)N1CCNCC1 (stereo not drawn),129 to 131 °C
20,COC(=O)c1cc(N)c(C(C)(C)C)c(N)c1,71 to 73 °C
21,O=[N+]([O-])c1c(Nc2ccon2)cnc2c1COCC2,143 to 145 °C
22,COc1cccc(C=N[C@H](C)c2ccc([N+](=O)[O-])cc2)c1O,88 to 90 °C
23,Cc1cc(-c2cc(O)c(SCc3ccccc3)c(=O)o2)cc(C)c1O,174 to 176 °C
24,CC(C)c1nn(-c2ccc(C(F)(F)F)cn2)cc1CCCCOc1ccccc1CC(=O)O,125 to 126 °C
25,N#CC(=NO)c1ccc(Cl)cc1Cl,151 °C
26,O=C(O)CCc1cn(Cc2ccc(OCc3ccccc3)cc2)nc1-c1ccccc1,147 to 148 °C

row,SMILES,melting point
1,Cc1nc(-n2ccccc2=O)sc1C(=O)NCc1ccccc1,180 to 182 °C
2,Cc1cc2c(-c3ccccc3Cl)c(NC(=O)Nc3ccc(F)cc3F)c(=O)n(C)c2cc1C,242 to 244 °C
3,C=C1CCN([C@H](C)[C@](O)(Cn2cncn2)c2ccc(F)cc2F)CC1,86 to 87 °C
4,O=Cc1ccc(-c2c(-c3nn[nH]n3)[nH]c3ccccc23)cc1,210 to 212 °C
5,CC(C)NCC(O)COc1ccc(OCCOCC2CCC2)cc1 (stereo not drawn),56 °C
6,CCN(CC)CCNC(=O)c1ccccc1NC(=O)COc1ccc(Cl)cc1,109 °C
7,O=c1[nH]c2cc3nc(-c4ccncc4)[nH]c3cc2[nH]c1=O,> 300 °C
8,NC(=O)NN(C(=O)c1ccccc1)c1ccccn1,206 °C
9,CCOC(=O)Nc1cc(-c2ccccc2)n(-c2ccc(S(N)(=O)=O)cc2)n1,121 to 128 °C
10,C[C@@H]([C@@H](O)c1ccc(OCc2ccccc2)cc1)N1C2CCC1CC(=Cc1ccccc1)C2 (relative stereo),145 to 148 °C
11,Nc1ncnc2c1nnn2C1CCC(O)C1O (stereo not drawn),244 to 245 °C
12,O=C(O)c1ccc2c(c1)C(=O)NC(C(Cl)(Cl)Cl)N2 (stereo not drawn),> 280 °C
13,O=c1[nH]cccc1CCCCCCCCCCCCc1ccc[nH]c1=O,210 °C
14,COC(=O)Cc1ccccc1OCc1ccc(OCc2nc(-c3ccccc3)sc2C)nc1,119 to 120 °C
15,CCOC(=O)c1ccc(NCCCCCCCCCCCCCC[Si](C)(C)C)cc1,91 to 92 °C
16,O=C(O)CCc1cc2cc(Cl)ccc2n1S(=O)(=O)c1cccc(C(F)(F)F)c1,203 to 206 °C
17,COc1c(Cl)ccnc1C(=O)O,116 to 117 °C
18,Fc1ccc(Cc2ccc(NC3=NCCN3)cc2)cc1,110 to 112 °C
19,CC12CCc3cc(C#N)ccc3C1=NNC(=O)C2 (stereo not drawn),> 300 °C
20,CCCc1ccc2oc(CCc3ccc(OC)cc3)c(C)c2c1O,77 to 79 °C
21,CC#CCOc1ccc(S(=O)C(C(=O)NO)c2cccc3ccccc23)cc1 (stereo not drawn),159 °C
22,CNC(=O)NN(CC(=O)OC)c1cccc(Cl)c1,121 to 122 °C
23,O=C(Cc1ccccn1)c1nc2ccccc2[nH]1,202 °C
24,COc1ccc(-c2c3c(cc4ccc(OC(C)C)cc24)C(=O)NC3)cc1,212 to 215 °C
25,COCc1cc(-c2c(S(C)(=O)=O)ccc(C(=O)C3C(=O)CCCC3=O)c2Cl)no1,39 to 40 °C
